Measured values published in US11000033B2, “Ketone or oxime compound, and herbicide” (NISSAN CHEMICAL CORPORATION, priority 2014, dated 2021).

Experiments:
Assay type in all cases: in vivo
Scirpus juncoides = assay: Test Example 1: herbicidal activity, application before weed generation in submerged conditions (symbol B); details: application herbicide amount 320 g/ha
Method in brief: (§1)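 Steps: alluvial soil flooded to 4 cm; weed seeds sown together; rice seedlings (2.5 leaf) transplanted; diluted emulsion applied to water surface the same day as sowing; plants grown at 25–30 °C in greenhouse; herbicidal effect rated on a 0–5 scale at 3 weeks.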

Leptochloa chinensis = assay: Test Example 3: herbicidal effect by foliage application, Wagner pot (symbol D); details: application herbicide amount 320 g/ha
Method in brief: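 Foliar spray of water-diluted emulsion formulation at a predetermined herbicide amount onto 14-day-old plants in flooded alluvial soil (water depth 0.1–0.5 cm), greenhouse 25–30 °C; rice sown alongside. Scored 3 wk post-application on set criteria.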

Alopecurus myosuroides = assay: Test Example 5: herbicidal effect by foliage application, plastic box (symbol J); details: 320 g/ha, 3 weeks after application
Method in brief: (§2)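 Emulsion formulation, diluted with water to the intended rate, was applied uniformly to leaves by small sprayer. Recipients were 14-day greenhouse-grown seedlings (25° C. to 30° C.). Assessment followed at 3 weeks.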

Setaria viridis [1] = assay: Test Example 4: herbicidal effect by soil treatment (symbol G); details: application herbicide amount 320 g/ha
Method in brief: (§3)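 Seeds were sown in sterilized diluvial soil, covered with about 1.5 cm of soil, and the soil surface was sprayed with a water-diluted emulsion of the compound at a predetermined rate. Plants grew in a greenhouse at 25° C. to 30° C.; effects were scored visually 3 weeks after application.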

rapeseed [2] = assay: Test Example 4: effect on crop by soil treatment (symbol g); details: application herbicide amount 320 g/ha
Method in brief: (§4)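 Crop seed is sown in spots together with several weed species in a box of sterilized diluvial soil. It is covered by about 1.5 cm of soil and kept in a greenhouse held between 25° C. and 30° C.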

Setaria viridis [3] = assay: Test Example 5: herbicidal effect by foliage application, plastic box (symbol G); details: 320 g/ha, 3 weeks after application
Method in brief: as §2

Galium spurium = assay: Test Example 4: herbicidal effect by soil treatment (symbol Q); details: application herbicide amount 320 g/ha
Method in brief: as §3

rapeseed [4] = assay: Test Example 5: effect on crop by foliage application, plastic box (symbol g); details: 320 g/ha, 3 weeks after application
Method in brief: (§5)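 Sterilized diluvial soil, plastic box (21 × 13 × 7 cm); spot sowing, ~1.5 cm soil cover; greenhouse 25–30° C.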

Apera spica-venti = assay: Test Example 4: herbicidal effect by soil treatment (symbol L); details: application herbicide amount 320 g/ha
Method in brief: as §3

[5] = system: Echinochloa crus-galli var. crus-galli; assay: Test Example 4: herbicidal effect by soil treatment (symbol H); details: application herbicide amount 320 g/ha
Method in brief: as §3

Amaranthus retroflexus = assay: Test Example 4: herbicidal effect by soil treatment (symbol N); details: application herbicide amount 320 g/ha
Method in brief: as §3

Stellaria media = assay: Test Example 5: herbicidal effect by foliage application, plastic box (symbol P); details: 320 g/ha, 3 weeks after application
Method in brief: as §2

[6] = system: Echinochloa crus-galli var. crus-galli; assay: Test Example 5: herbicidal effect by foliage application, plastic box (symbol H); details: 320 g/ha, 3 weeks after application
Method in brief: as §2

Monochoria vaginalis = assay: Test Example 1: herbicidal activity, application before weed generation in submerged conditions (symbol C); details: application herbicide amount 320 g/ha
Method in brief: as §1

wheat = assay: Test Example 5: effect on crop by foliage application, plastic box (symbol e); details: 320 g/ha, 3 weeks after application
Method in brief: as §5

Lolium multiflorum Lam. = assay: Test Example 4: herbicidal effect by soil treatment (symbol K); details: application herbicide amount 320 g/ha
Method in brief: as §3

corn = assay: Test Example 4: effect on crop by soil treatment (symbol c); details: application herbicide amount 320 g/ha
Method in brief: as §4

| SMILES | Herbicidal effect grade, B: Scirpus juncoides (Scirpus juncoides) | herbicidal effect on D (Leptochloa chinensis), grade 0-5 (Leptochloa chinensis) | J: Alopecurus myosuroides, herbicidal effect grade (Alopecurus myosuroides) | G (Setaria viridis) herbicidal effect grade (Setaria viridis [1]) | g (rapeseed) effect on crop grade (rapeseed [2]) | G: Setaria viridis, herbicidal effect grade (Setaria viridis [3]) | Q (Galium spurium) herbicidal effect grade (Galium spurium) | g: rapeseed, effect on crop grade (rapeseed [4]) | L (Apera spica-venti) herbicidal effect grade (Apera spica-venti) | H (Echinochloa crus-galli var. crus-galli) herbicidal effect grade [5] | N (Amaranthus retroflexus) herbicidal effect grade (Amaranthus retroflexus) | P: Stellaria media, herbicidal effect grade (Stellaria media) | H: Echinochloa crus-galli var. crus-galli, herbicidal effect grade [6] | Herbicidal effect grade, C: Monochoria vaginalis (Monochoria vaginalis) | e: wheat, effect on crop grade (wheat) | K (Lolium multiflorum Lam.) herbicidal effect grade (Lolium multiflorum Lam.) | c (corn) effect on crop grade (corn) |
| --- | --- | --- | --- | --- | --- | --- | --- | --- | --- | --- | --- | --- | --- | --- | --- | --- | --- |
| CC(CC1CC(O)=C(c2c(C)cc(C)cc2C)C1=O)=NOCc1ccccc1F (stereo not shown) [1-026] | 5 (Herbicidal ratio of 90% or more (almost completely withered)) | 5 (Herbicidal ratio of 90% or more (almost completely withered)) | 5 (Herbicidal ratio of 90% or more (almost completely withered)) | 5 (Herbicidal ratio of 90% or more (almost completely withered)) | 3 (Herbicidal ratio of 40% or higher and lower than 70%) | 5 (Herbicidal ratio of 90% or more (almost completely withered)) | 0 (Herbicidal ratio of 5% or lower (almost no effect)) | 4 (Herbicidal ratio of 70% or higher and lower than 90%) | 5 (Herbicidal ratio of 90% or more (almost completely withered)) | 5 (Herbicidal ratio of 90% or more (almost completely withered)) | 0 (Herbicidal ratio of 5% or lower (almost no effect)) | 1 (Herbicidal ratio of 5% or higher and lower than 20%) | 4 (Herbicidal ratio of 70% or higher and lower than 90%) | 5 (Herbicidal ratio of 90% or more (almost completely withered)) | 2 (Herbicidal ratio of 20% or higher and lower than 40%) | 5 (Herbicidal ratio of 90% or more (almost completely withered)) | 0 (Herbicidal ratio of 5% or lower (almost no effect)) |
| COCC(CC1CC(O)=C(c2c(C)cc(C)cc2C)C1=O)=NOC (stereo not shown) [1-040] | 2 (Herbicidal ratio of 20% or higher and lower than 40%) | 4 (Herbicidal ratio of 70% or higher and lower than 90%) | 5 (Herbicidal ratio of 90% or more (almost completely withered)) | 4 (Herbicidal ratio of 70% or higher and lower than 90%) | 3 (Herbicidal ratio of 40% or higher and lower than 70%) | 4 (Herbicidal ratio of 70% or higher and lower than 90%) | 0 (Herbicidal ratio of 5% or lower (almost no effect)) | 4 (Herbicidal ratio of 70% or higher and lower than 90%) | 5 (Herbicidal ratio of 90% or more (almost completely withered)) | 5 (Herbicidal ratio of 90% or more (almost completely withered)) | 0 (Herbicidal ratio of 5% or lower (almost no effect)) | 0 (Herbicidal ratio of 5% or lower (almost no effect)) | 5 (Herbicidal ratio of 90% or more (almost completely withered)) | 0 (Herbicidal ratio of 5% or lower (almost no effect)) | 0 (Herbicidal ratio of 5% or lower (almost no effect)) | 4 (Herbicidal ratio of 70% or higher and lower than 90%) | 0 (Herbicidal ratio of 5% or lower (almost no effect)) |
